pEC50: −log10 of the molar value.
Assays:
Hep-G2 cells = test: Cell cytotoxicity CC50; assay type: cell-based; settings: mean of at least two experiments
RSV A2 = test: RSV plaque reduction assay; assay type: cell-based, respiratory syncytial virus (RSV); settings: Hep-G2 cells, RSV A2, mean of at least two experiments
Outline: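 RSV A2 (100 PFU/well) premixed with eight serial compound dilutions, added to confluent Hep-G2 monolayers for 2 h at 37° C, then held 2 days under CMC overlay containing compound (DMEM, 2% FBS). Plaques immunostained (HRP/TrueBlue) and counted; EC50 is 50% reduction versus virus control from 4-parameter fit, mean of ≥2 experiments.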

[1] = Liver microsomal stability, dog; assay type: in vitro ADME; settings: dog liver microsomes, 0.5 mg/mL protein, 1 μM compound, NADPH, >80% remaining at 45 min denoted >140; for half-life: pH 7.4, read-out: Liver Microsomal Stability: t1/2 (min), dog
Outline: (§1)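 Pooled liver microsomes (0.5 mg/mL protein) in 0.1 M phosphate pH 7.4 with 1 μM compound (0.25% DMSO), started with 1 mM NADPH at 37° C; sampled 0-45 min, minus-NADPH control 45 min. LC-MS/MS depletion slope gave t1/2 and CLint.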

[2] = Liver microsomal stability, rat; assay type: in vitro ADME; settings: rat liver microsomes, 0.5 mg/mL protein, 1 μM compound, NADPH, >80% remaining at 45 min denoted >140; for half-life: pH 7.4, read-out: Liver Microsomal Stability: t1/2 (min), rat
Outline: as §1

[3] = Liver microsomal stability, human; assay type: in vitro ADME; settings: human liver microsomes, 0.5 mg/mL protein, 1 μM compound, NADPH, >80% remaining at 45 min denoted >140; for half-life: pH 7.4, read-out: Liver Microsomal Stability: t1/2 (min), human
Outline: as §1

Cell cytotoxicity CC50 = assay type: cell-based; settings: human; mean of at least two experiments
[4] = Rat pharmacokinetics in vivo; settings: male Sprague Dawley rats; for C 8 h / Cmax: doses 1 mg/kg (IV) and 10 mg/kg (PO); for Vd / clearance / bioavailability / half-life / AUC(0-t) / Cmax: rat, in vivo; for AUC(0-t): read-out: PO AUClast
Protocol: The pharmacokinetics of compounds were studied in vivo in rats at doses of 1 mg/kg (IV) and 10 mg/kg (PO).
Male rats (Sprague Dawley) surgically prepared with a jugular vein cannula were treated with experimental compounds via intravenous administration (IV; n=3; 1 mg/kg) or oral administration (PO; n=3; 10 mg/kg). Compounds were formulated as a solution in 40:60 dimethylacetamide:saline (IV administration), a suspension in 1% methyl cellulose (viscosity: 15 cP), 0.1% Tween80 in water (PO administration: Example 3), a solution in 10% DMSO/10% Cremaphor/80% water (PO administration: Examples 4, 11, 21, 23, 25, 26, 32) or a solution in 10% DMSO/20% Cremaphor/70% water (PO administration: Examples 19, 20, 22, 24, 30). […] Serial blood samples were collected via the cannula at 0.02, 0.08, 0.25, 0.5, 1, 2, 4, 6, 8 and 24 h post IV dosing of compound, and at 0.08, 0.25, 0.5, 1, 2, 4, 6, 8 and 24 h post oral dosing of compound, and plasma was prepared by centrifugation and stored immediately at −80° C. Samples were subsequently thawed, prepared for analysis by protein precipitation with acetonitrile, and analysed by tandem LCMS using electrospray ionisation using a matrix-matched calibration curve. PK parameters were calculated from the resulting data.

[5] = Liver hepatocyte stability, human; assay type: in vitro ADME; settings: human hepatocytes, 3 μM compound, 60 min, >80% remaining at 60 min denoted >186, read-out: Liver Hepatocyte Stability: t1/2 (min)
Protocol: (§2) Cryopreserved pooled hepatocytes were purchased from a reputable commercial supplier and stored in liquid nitrogen prior to use. Williams E media supplemented with 2 mM L-glutamine and 25 mM HEPES and test compound (final substrate concentration 3 μM; final DMSO concentration 0.25%) are pre-incubated at 37° C. prior to the addition of a suspension of cryopreserved hepatocytes (final cell density 0.5×10^6 viable cells/mL in Williams E media supplemented with 2 mM L-glutamine and 25 mM HEPES) to initiate the reaction. The final incubation volume is 500 μL. Two control compounds were included with each species, alongside appropriate vehicle control. The reactions are stopped by transferring 50 μL of incubate to 100 μL acetonitrile containing internal standard at the appropriate time points. Samples were removed at 6 time points (0, 5, 15, 30, 45 and 60 min) over the course of a 60 min experiment. The termination plates are centrifuged at 2500 rpm at 4° C. for 30 min to precipitate the protein. Following protein precipitation, the sample supernatants were combined in cassettes of up to 4 compounds and analysed using generic LC-MS/MS conditions. From a plot of ln peak area ratio (compound peak area/internal standard peak area) against time, the gradient of the line is determined. Subsequently, half-life (t1/2) and intrinsic clearance (CLint) were calculated.

[6] = Liver hepatocyte stability, dog; assay type: in vitro ADME; settings: dog hepatocytes, 3 μM compound, 60 min, >80% remaining at 60 min denoted >186, read-out: Liver Hepatocyte Stability: t1/2 (min)
Protocol: as §2

[7] = Liver hepatocyte stability, rat; assay type: in vitro ADME; settings: rat hepatocytes, 3 μM compound, 60 min, >80% remaining at 60 min denoted >186, read-out: Liver Hepatocyte Stability: t1/2 (min)
Protocol: as §2

RSV = settings: Antimicrobial Agents and Chemotherapy, September 2007, 3346-3353; cited from earlier work
[8] = IV 1 mg/kg, read-out: IV t½ (converted)
[9] = PO 10 mg/kg, read-out: PO t½ (converted)
[10] = human respiratory syncytial virus, HepG2

Row | Compound | CC50 (Cell cytotoxicity CC50) | C 8 h [4] | Vd ([4]; IV 1 mg/kg) | clearance ([4]; IV 1 mg/kg) | bioavailability ([4]; IV 1 mg/kg, PO 10 mg/kg) | half-life [4, 8] | AUC(0-t) ([4]; PO 10 mg/kg) | half-life [4, 9] | Cmax [4] | half-life [5] | half-life [1] | half-life [6] | pEC50 (RSV A2; [10]) | half-life [7] | half-life [2] | half-life [3] | also measured
1 | 3-[6-(Cyclopropylamino)-2-fluoropyridin-3-yl]-1-(oxetan-3-yl)-N-[(3S)-2-oxo-5-phenyl-1,3-dihydro-1,4-benzodiazepin-3-yl]pyrazole-4-carboxamide [Example 37] |  |  |  |  |  |  |  |  |  |  |  |  |  |  |  |  | CC50 (Hep-G2 cells): > 25000 nM; pEC50 (RSV A2): 7.11
2 | 3-[6-(Cyclopropylamino)-2-fluoropyridin-3-yl]-N-[(3S)-9-fluoro-2-oxo-5-phenyl-1,3-dihydro-1,4-benzodiazepin-3-yl]-1-(oxetan-3-yl)pyrazole-4-carboxamide [Example 36] |  |  |  |  |  |  |  |  |  |  |  |  |  |  |  |  | CC50 (Hep-G2 cells): > 25000 nM; Liver Microsomal Stability: t1/2 (min); dog [1]: 191 min; pEC50 (RSV A2): 7.35; Liver Microsomal Stability: t1/2 (min); rat [2]: 93.2 min; Liver Microsomal Stability: t1/2 (min); human [3]: 68.5 min
3 | O=C(N[C@H]1N=C(c2ccccc2)c2ccccc2NC1=O)c1cnn(C2CCOCC2)c1-c1ccc(NC2CC2)nc1F [Example 20, 5-[6-(Cyclopropylamino)-2-fluoropyridin-3-yl]-N-[(3S)-2-oxo-5-phenyl-1,3-dihydro-1,4-benzodiazepin-3-yl]-1-(oxan-4-yl)pyrazole-4-carboxamide] | > 25000 nM | 25.7 ng/mL | 2.9 L/kg | 32.9 mL/min/kg | 23.9% | 1.5 h | 1170 ng·h/mL | 1.4 h | 258 ng/mL | 190 min | 325 min | > 186 min | 7.23 | 115 min | 116 min | 83.1 min | 
4 | CCn1cc(C(=O)N[C@H]2N=C(c3ccccc3)c3ccccc3NC2=O)c(-c2ccc(NC3CC3)nc2F)n1 [Example 25, 3-[6-(Cyclopropylamino)-2-fluoropyridin-3-yl]-1-ethyl-N-[(3S)-2-oxo-5-phenyl-1,3-dihydro-1,4-benzodiazepin-3-yl]pyrazole-4-carboxamide] | > 25000 nM | 294 ng/mL | 0.9 L/kg | 15.9 mL/min/kg | 71.5% | 1.3 h | 7470 ng·h/mL | 2.7 h | 1150 ng/mL | 506 min | 17 min | 68.1 min | 7.31 | > 186 min | 46.3 min | 82.8 min | 
5 | CCn1cc(C(=O)N[C@H]2N=C(c3ccccc3)c3cccc(F)c3NC2=O)c(-c2ccc(NC3CC3)nc2F)n1 [Example 26, 3-[6-(Cyclopropylamino)-2-fluoropyridin-3-yl]-1-ethyl-N-[(3S)-9-fluoro-2-oxo-5-phenyl-1,3-dihydro-1,4-benzodiazepin-3-yl]pyrazole-4-carboxamide] | > 25000 nM | 919 ng/mL | 1.1 L/kg | 8.2 mL/min/kg | 95.6% | 2.6 h | 19400 ng·h/mL | 2.6 h | 2120 ng/mL | > 186 min | 30.8 min | 160 min | 7.44 | > 186 min | 70.2 min | 84.9 min | 
6 | CC(C)(C)n1cc(C(=O)N[C@H]2N=C(c3ccccc3)c3cccc(F)c3NC2=O)c(-c2ccc(NC3CC3)nc2F)n1 [Example 30, 1-tert-Butyl-3-[6-(cyclopropylamino)-2-fluoropyridin-3-yl]-N-[(3S)-9-fluoro-2-oxo-5-phenyl-1,3-dihydro-1,4-benzodiazepin-3-yl]pyrazole-4-carboxamide] | > 25000 nM | 444 ng/mL | 1.4 L/kg | 11.2 mL/min/kg | 57% | 1.8 h | 8540 ng·h/mL | 3 h | 918 ng/mL | 71.3 min | 63.7 min | > 186 min | 7.49 | 98.5 min | 53.1 min | 253 min | 
7 | O=C(N[C@H]1N=C(c2ccccc2)c2cccc(F)c2NC1=O)c1cn(C2CCOCC2)nc1-c1ccc(NC2CC2)nc1F [Example 32, 3-[6-(Cyclopropylamino)-2-fluoropyridin-3-yl]-N-[(3S)-9-fluoro-2-oxo-5-phenyl-2,3-dihydro-1H-1,4-benzodiazepin-3-yl]-1-(oxan-4-yl)-1H-pyrazole-4-carboxamide] | > 25000 nM | 84 ng/mL | 1.1 L/kg | 17.7 mL/min/kg | 19.3% | 1.2 h | 1940 ng·h/mL | 5.2 h | 452 ng/mL | > 186 min | 331 min | > 186 min | 7.24 | 376 min | 127 min | 298 min | 
8 | O=C(Nc1ccccc1F)N[C@H]1N=C(c2ccccc2)c2ccccc2NC1=O [RSV604] |  |  |  |  |  |  |  |  |  |  |  |  |  |  |  |  | anti-RSV activity (RSV): sub-micromolar

Source: patent US20220409629A1, “BENZODIAZEPINE DERIVATIVES FOR TREATING A RESPIRATORY SYNCYTIAL VIRUS (RSV) INFECTION” (priority 2019, published 2022)
